Read-outs that look alike come from different tables or passages of the source.
How the values were obtained:
in vitro = details: human
[1] = tested on: Toxoplasma gondii tachyzoites of the RH strain; details: 7 days of treatment
T. gondii tachyzoites [2] = experiment: Transmission electron microscopy of treated tachyzoites; format: cell-based, Toxoplasma gondii
Protocol: NHDF cultures infected with T. gondii were treated with compounds and fixed with 2.5% glutaraldehyde (EM Grade—Ted Pella Inc., Redding, CA, USA) in 0.1 M sodium cacodylate buffer pH 7.4 (Ted Pella Inc.). Cells were post-fixed with 1% osmium tetroxide, 1.25% potassium ferrocyanide, and 5 mM CaCl2, in 0.1 M sodium cacodylate buffer (pH 7.4). The sample fixation and processing for microscopy were performed as previously described. Samples were dehydrated in alcohol solutions of increasing concentrations (35–100%) and embedded in epoxy resin (Polybed 812, Polysciences). Ultrathin sections were collected in copper grids 300 mesh (Ted Pella Inc.), stained with uranyl acetate and lead citrate, and then observed in a Fei TecNai G2 120 kV Spirit Electron Microscope (FEI Company, Eindhoven, The Netherlands).

[3] = tested on: Toxoplasma gondii tachyzoites of the RH strain; experiment: microbe, parasite or virus in culture; format: cell-based; details: for activity at […]: 250 nM; for activity at 0.5 µM: 500 nM; for activity at 1 µM: 1000 nM
T. gondii tachyzoites [4] = details: cited from earlier work
[5] = cited from earlier work
[6] = tested on: Toxoplasma gondii tachyzoites of the RH strain; experiment: microbe, parasite or virus in culture; details: 168 h
[7] = Cytotoxicity assay in NHDF cells (MTS); details: human
T. gondii tachyzoites [8] = experiment: Immunofluorescence microscopy of treated tachyzoites (aberrant cell division, rhoptry morphology); details: 24 h; for PVs with parasites with aberrant division: IMC1 and DAPI labeling; for Vacuoles with aberrant parasites: […] (250 nM); for Effect on tachyzoite morphology and cell division (fluorescence microscopy): 125 nM
Protocol: Rabbit anti-IMC1 (1:1000) and anti-ARO (1:1000) (kindly provided by Dr. Dominique Soldati, Universite de Geneve, Switzerland) were used to label the mother cell and daughter cell pellicles throughout the endodyogeny process and rhoptries, respectively. Mouse anti-SAG1 (1:200; kindly donated by Dr. Tiago Mineo, Universidade Federal de Uberlândia) was used to label the parasite plasma membrane. DAPI (2 µg/mL; Sigma-Aldrich, St. Louis, MO, USA) was used to label the DNA. […] After labeling with antibodies, the coverslips were mounted onto slides using Prolong gold (Life Technologies), and samples were examined on a Zeiss Axio Observer Z1 microscope (Baden-Württemberg, Germany) or Olympus BX60 microscope (Shinjuku City, Tokyo, Japan).

[9] = estimated; ref [66]; cited from earlier work
[10] = cited from earlier work; remark: listed apart in the source
[11] = in vivo; cited from earlier work
[12] = cited from earlier work; remark: listed apart in the source
[13] = cited from earlier work; remark: listed apart in the source
[14] = Rat, cited from earlier work; for Cmax: read-out: Plasma concentration (Cmax)
[15] = Rat; ref Table S3 supplementary ref 3; cited from earlier work
[16] = design: method as in Table S3 supplementary ref 2; details: Mouse and Rat; ref Table S3 supplementary ref 2; cited from earlier work
[17] = design: method as in Table S3 supplementary ref 30; details: Rat and Monkey; ref Table S3 supplementary ref 30; cited from earlier work
[18] = read-out: IC50 (μM) in Tachyzoites, RH strain in NHDF cells, plaque assay
[19] = read-out: IC50 against T. gondii proliferation, RH strain
[20] = Toxoplasma gondii, 31.2 nM, 24 h of treatment, read-out: Proliferation index (%)
[21] = Toxoplasma gondii, 62.5 nM, 24 h of treatment, read-out: Proliferation index (%)
[22] = read-out: IC50 against T. gondii proliferation, RH strain, 7 days of treatment
[23] = Toxoplasma gondii, 24 h of treatment, read-out: Proliferation index (%)
[24] = Human, ref Table S3 supplementary refs 1, 4, 8, 11, 13, 15, 17, 18, 19, 23, 31
[25] = read-out: Plasma concentration (Cmax), Human, ref Table S3 supplementary refs 1, 4, 8, 11, 13, 15, 17, 18, 19, 23
[26] = NHDF, read-out: IC50 (μM) in Tachyzoites, RH strain in NHDF cells, plaque assay, 7 days of treatment
[27] = Mice/Mouse, ref Table S3 supplementary refs 6, 16, 24, 27, 33
[28] = ref Table S3 supplementary refs 28, 32
[29] = ref Table S3 supplementary refs 3, 10, 12, 28, 32
[30] = published in vivo studies, ref Table S3

SMILES: CC(C)C[C@H](NC(=O)[C@H](Cc1ccccc1)NC(=O)c1cnccn1)B(O)O [Bortezomib]
- selectivity ratio at 7 days (in vitro): 24
- IC50 [1, 18]: 0.03 µM
- IC50 [1, 19]: < 0.03 µM
- Effect on T. gondii ultrastructure (TEM) (T. gondii tachyzoites [2]; 62.5 nM, 48 h): affected the parasite cell division
- inhibition at 0.0312 µM ([3]; Toxoplasma gondii, 31.2 nM, 24 h, read-out: Inhibition of parasite proliferation): 75 to 80%
- activity at 0.0312 µM [3, 20]: 20.9%
- inhibition at 0.0625 µM ([3]; Toxoplasma gondii, 62.5 nM, 24 h, read-out: Inhibition of parasite proliferation): > 90%
- activity at 0.0625 µM [3, 21]: 9.23%
- EC50 (T. gondii tachyzoites [4]; 72 h of treatment, ref Cajazeiro et al. (2022) [24], read-out: EC50 against T. gondii): 220 nM
- IC50 (T. gondii tachyzoites [4]; 72 h of treatment, ref [34], read-out: IC50 in tachyzoites of T. gondii): 100 nM
- Cmax ([5]; human, in vivo): 148 nM
- Plasma concentration (Cmax) ([5]; human, in vivo): 56.7 ng/mL
- IC50 [6, 22]: ≤ 0.03 µM
- CC50 at 7 days [7]: 720 ± 240 nM
- PVs with parasites with aberrant division (T. gondii tachyzoites [8]; 31.2 nM): 23.6%
- PVs with parasites with aberrant division (T. gondii tachyzoites [8]; 62.5 nM): 48.0%

SMILES: CO[C@@H]1[C@H](N(C)C(=O)c2ccccc2)C[C@H]2O[C@]1(C)n1c3ccccc3c3c4c(c5c6ccccc6n2c5c31)C(=O)NC4 [Midostaurin]
- Effect on T. gondii ultrastructure (TEM) (T. gondii tachyzoites [2]; 250 µM as printed, 48 h): drastic effects on the parasite ultrastructure
- activity at […] [3, 23]: 23.1%
- activity at 0.5 µM [3, 23]: 24.3%
- activity at 1 µM [3, 23]: 24.9%
- Plasma concentration (Cmax) [5, 24]: 1210 ng/mL
- Cmax [5, 25]: 2120 nM
- Oral bioavailability [9]: > 90%
- IC50 [6, 26]: 0.08 µM
- CC50 at 7 days [7]: 240 ± 20 nM
- Vacuoles with aberrant parasites (T. gondii tachyzoites [8]): more than 80%
- Vacuoles with aberrant parasites (T. gondii tachyzoites [8]; listed as midostaurin): around 80%

SMILES: Nc1nc(Nc2ccc3c(c2)CC[C@@H](N2CCCC2)CC3)nn1-c1cc2c(nn1)-c1ccccc1CCC2 [Bemcentinib]
- CC50 at 7 days (in vitro): 970 ± 150 nM
- selectivity ratio at 7 days (in vitro): 6
- Cmax ([5]; human, in vivo): 105 nM
- Plasma concentration (Cmax) ([5]; human, in vivo): 53 ng/mL
- IC50 [6, 26]: 0.15 ± 0.03 µM
- Brain availability ([10]; in vivo): confirmed
- Does it cross the blood-brain barrier or is found in the brain? [11]: Yes

SMILES: CC[C@@H](C(=O)[C@@H](C)[C@@H](O)[C@H](C)[C@@H]1O[C@@H]([C@@H](CC)C(=O)O)CC[C@@H]1C)[C@H]1O[C@]2(C=C[C@@H](O)[C@]3(CC[C@@](C)([C@H]4CC[C@](O)(CC)[C@H](C)O4)O3)O2)[C@H](C)C[C@@H]1C [Salinomycin]
- Does it cross the blood-brain barrier or is found in the brain? [12, 27]: Yes
- CC50 at 7 days (in vitro): 1140 ± 170 nM
- selectivity ratio at 7 days (in vitro): 16
- Plasma concentration (Cmax) ([13]; Mice, ref Table S3 supplementary ref 27): 13.2 ng/mL
- Cmax ([13]; read-out: Plasma concentration (Cmax), Mouse/Mice, ref Table S3 supplementary refs 16, 27): 17.6 nM
- Effect on T. gondii ultrastructure (TEM) (T. gondii tachyzoites [2]; 125 and […] nM, 24 h): extensive vacuolization process
- activity at 0.0312 µM [3, 20]: 79.1%
- activity at 0.0625 µM [3, 21]: 21.9%
- activity at 0.125 µM ([3]; Toxoplasma gondii, 125 nM, 24 h of treatment, read-out: Proliferation index (%)): 14.4%
- inhibition at […] ([3]; Toxoplasma gondii, […] nM ([…] µM), 24 h, read-out: Inhibition of parasite proliferation): > 90%
- activity at […] [3, 23]: 6.38%
- Plasma concentration (Cmax) [14, 28]: 40 ng/mL
- Cmax [14, 29]: 53.3 nM
- IC50 [6, 22]: < 0.1 µM
- IC50 [6, 26]: 0.07 ± 0.01 µM
- Brain availability [10, 30]: confirmed
- Effect on tachyzoite morphology and cell division (fluorescence microscopy) (T. gondii tachyzoites [8]): vacuoles containing fragmented parasites

SMILES: COc1ccc(C[C@H]2NC[C@H](O)[C@H]2OC(C)=O)cc1 [(-)-Anisomycin]
- Does it cross the blood-brain barrier or is found in the brain? [15]: Yes
- IC50 [1, 18]: 0.02 µM
- IC50 [1, 19]: ≤ 0.03 µM
- Effect on T. gondii ultrastructure (TEM) (T. gondii tachyzoites [2]; 100 nM, 48 h): alteration of the ER architecture
- Proliferation index (%) ([3]; 62.5 nM, 24 h of treatment): 60.56%
- Proliferation index (%) ([3]; 125 nM, 24 h of treatment): 22.63%
- IC50 (T. gondii tachyzoites [4]; 48 h of treatment, ref Fichera, Bhopale, and Ross (1995) [43], read-out: IC50 against T. gondii): 10 nM
- Plasma concentration (Cmax) ([14]; ref Table S3 supplementary refs 3, 10, 12, 21): 2.75 ng/mL
- Brain availability [10, 30]: confirmed
- PVs with parasites with aberrant division (T. gondii tachyzoites [8]; 62.5 nM): 22.5%
- Effect on tachyzoite morphology and cell division (fluorescence microscopy) (T. gondii tachyzoites [8]): complete arrestment of cell division

SMILES: Cc1cccc(/C=N/Nc2cc(N3CCOCC3)nc(OCCc3ccccn3)n2)c1 [Apilimod]
- Does it cross the blood-brain barrier or is found in the brain? ([12]; mouse, in vivo): Yes
- CC50 at 7 days (in vitro): 2120 ± 120 nM
- selectivity ratio at 7 days (in vitro): 10
- Cmax ([13]; mouse, in vivo): 2530 nM
- Inhibition of parasite proliferation, in words ([3]; 0.5–1 µM, 24 h): modest inhibition
- activity at 0.5 µM [3, 23]: 99.7%
- activity at 1 µM [3, 23]: 73.2%
- IC50 [6, 26]: 0.22 ± 0.06 µM
- Brain availability ([10]; in vivo): confirmed

SMILES: CCN1CCN(Cc2ccc(Nc3ncc(F)c(-c4cc(F)c5nc(C)n(C(C)C)c5c4)n3)nc2)CC1 [Abemaciclib]
- Plasma concentration (Cmax) [5, 24]: 492 ng/mL
- Cmax [5, 25]: 971 nM
- Does it cross the blood-brain barrier or is found in the brain? [16]: Yes
- IC50 [6, 22]: < 0.1 µM
- IC50 [6, 26]: 0.09 ± 0.01 µM
- Brain availability [10, 30]: confirmed

SMILES: CNC(=O)c1cc(Oc2ccc(NC(=O)Nc3ccc(Cl)c(C(F)(F)F)c3)c(F)c2)ccn1 [Regorafenib]
- CC50 at 7 days (in vitro): 3030 ± 10 nM
- selectivity ratio at 7 days (in vitro): 12
- Cmax ([5]; human, in vivo): 3900 nM
- Plasma concentration (Cmax) ([5]; human, in vivo): 1900 ng/mL
- IC50 [6, 26]: 0.25 ± 0.04 µM
- Brain availability ([10]; in vivo): confirmed
- Does it cross the blood-brain barrier or is found in the brain? [11]: Yes

SMILES: CNC(=O)c1cc(Oc2ccc(NC(=O)Nc3ccc(Cl)c(C(F)(F)F)c3)cc2)ccn1 [Sorafenib]
- Plasma concentration (Cmax) [5, 24]: 1001.3 ng/mL
- Cmax ([5]; read-out: Plasma concentration (Cmax), Human, ref Table S3 supplementary refs 20, 22, 25, 31): 2200 nM
- Plasma concentration (Cmax) ([14]; ref Table S3 supplementary ref 29): 2410 ng/mL
- Cmax ([14]; ref Table S3 supplementary refs 21, 29): 5200 nM
- IC50 [6, 26]: 0.56 ± 0.03 µM
- Brain availability [10, 30]: confirmed
- Does it cross the blood-brain barrier or is found in the brain? [17]: Yes

SMILES: COc1ccc2cc1Oc1ccc(cc1)C[C@H]1c3cc(c(OC)cc3CCN1C)Oc1c(OC)c(OC)cc3c1[C@H](C2)N(C)CC3 [Tetrandrine]
- Does it cross the blood-brain barrier or is found in the brain? [12, 27]: Yes
- CC50 at 7 days (in vitro): 4770 ± 8250 nM
- selectivity ratio at 7 days (in vitro): 14
- Plasma concentration (Cmax) [14, 28]: 237.10 ng/mL
- Cmax [14, 29]: 381 nM
- IC50 [6, 26]: 0.35 ± 0.07 µM
- Brain availability [10, 30]: confirmed
